According to ChEMBL document CHEMBL1201862, “PubChem BioAssay data set” (2004):
Each block holds one molecule with its values, some of them ahead of it. Calls of active or inactive are those of the source.

Assays:
[1] = biological target: T1, Probable nicotinate-nucleotide adenylyltransferase (Staphylococcus aureus (strain N315), UniProt P65502); assay type: functional, Staphylococcus aureus subsp. aureus N315;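 on IC50 Mean: confirmatory dose-response retesting of NadD inhibitor hits first found in an ultra-high-throughput screen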
[2] = biological target: T1, Probable nicotinate-nucleotide adenylyltransferase; assay type: functional, Staphylococcus aureus subsp. aureus N315; conditions: read-out: IC50_Mean
[3] = biological target: 26S proteasome non-ATPase regulatory subunit 14 (Homo sapiens, UniProt O00487); test: inhibition of proteasome subunit RPN11 – biochemical, fluorescence polarization, uHTS hits, confirmation (AID 602368); assay type: functional
[4] = biological target: 72 kDa type IV collagenase (Homo sapiens, UniProt P08253); test: Dose Response validation of uHTS RPN11 inhibitor hits using a MMP-2 Fluorescence assay.; assay type: functional
[5] = biological target: Induced myeloid leukemia cell differentiation protein Mcl-1 (Homo sapiens, UniProt Q07820); assay type: functional
Prothrombin = Prothrombin (Bos taurus, UniProt P00735); test: thrombin inhibition, dose response, biochemical, fluorescence polarization, uHTS hits (AID 602369); assay type: functional
[6] = biological target: T2, Voltage-gated N-type calcium channel alpha-1B subunit/Amyloid beta A4 precursor protein-binding family A member 1 (Homo sapiens, UniProt Q00975+Q02410); test: disruptors of Mint-PDZ/N-type channel peptide interaction – biochemical, HTRF, set 2, SAR follow-up (AID 434980); assay type: functional
T2 sequence (Q00975 whole entry): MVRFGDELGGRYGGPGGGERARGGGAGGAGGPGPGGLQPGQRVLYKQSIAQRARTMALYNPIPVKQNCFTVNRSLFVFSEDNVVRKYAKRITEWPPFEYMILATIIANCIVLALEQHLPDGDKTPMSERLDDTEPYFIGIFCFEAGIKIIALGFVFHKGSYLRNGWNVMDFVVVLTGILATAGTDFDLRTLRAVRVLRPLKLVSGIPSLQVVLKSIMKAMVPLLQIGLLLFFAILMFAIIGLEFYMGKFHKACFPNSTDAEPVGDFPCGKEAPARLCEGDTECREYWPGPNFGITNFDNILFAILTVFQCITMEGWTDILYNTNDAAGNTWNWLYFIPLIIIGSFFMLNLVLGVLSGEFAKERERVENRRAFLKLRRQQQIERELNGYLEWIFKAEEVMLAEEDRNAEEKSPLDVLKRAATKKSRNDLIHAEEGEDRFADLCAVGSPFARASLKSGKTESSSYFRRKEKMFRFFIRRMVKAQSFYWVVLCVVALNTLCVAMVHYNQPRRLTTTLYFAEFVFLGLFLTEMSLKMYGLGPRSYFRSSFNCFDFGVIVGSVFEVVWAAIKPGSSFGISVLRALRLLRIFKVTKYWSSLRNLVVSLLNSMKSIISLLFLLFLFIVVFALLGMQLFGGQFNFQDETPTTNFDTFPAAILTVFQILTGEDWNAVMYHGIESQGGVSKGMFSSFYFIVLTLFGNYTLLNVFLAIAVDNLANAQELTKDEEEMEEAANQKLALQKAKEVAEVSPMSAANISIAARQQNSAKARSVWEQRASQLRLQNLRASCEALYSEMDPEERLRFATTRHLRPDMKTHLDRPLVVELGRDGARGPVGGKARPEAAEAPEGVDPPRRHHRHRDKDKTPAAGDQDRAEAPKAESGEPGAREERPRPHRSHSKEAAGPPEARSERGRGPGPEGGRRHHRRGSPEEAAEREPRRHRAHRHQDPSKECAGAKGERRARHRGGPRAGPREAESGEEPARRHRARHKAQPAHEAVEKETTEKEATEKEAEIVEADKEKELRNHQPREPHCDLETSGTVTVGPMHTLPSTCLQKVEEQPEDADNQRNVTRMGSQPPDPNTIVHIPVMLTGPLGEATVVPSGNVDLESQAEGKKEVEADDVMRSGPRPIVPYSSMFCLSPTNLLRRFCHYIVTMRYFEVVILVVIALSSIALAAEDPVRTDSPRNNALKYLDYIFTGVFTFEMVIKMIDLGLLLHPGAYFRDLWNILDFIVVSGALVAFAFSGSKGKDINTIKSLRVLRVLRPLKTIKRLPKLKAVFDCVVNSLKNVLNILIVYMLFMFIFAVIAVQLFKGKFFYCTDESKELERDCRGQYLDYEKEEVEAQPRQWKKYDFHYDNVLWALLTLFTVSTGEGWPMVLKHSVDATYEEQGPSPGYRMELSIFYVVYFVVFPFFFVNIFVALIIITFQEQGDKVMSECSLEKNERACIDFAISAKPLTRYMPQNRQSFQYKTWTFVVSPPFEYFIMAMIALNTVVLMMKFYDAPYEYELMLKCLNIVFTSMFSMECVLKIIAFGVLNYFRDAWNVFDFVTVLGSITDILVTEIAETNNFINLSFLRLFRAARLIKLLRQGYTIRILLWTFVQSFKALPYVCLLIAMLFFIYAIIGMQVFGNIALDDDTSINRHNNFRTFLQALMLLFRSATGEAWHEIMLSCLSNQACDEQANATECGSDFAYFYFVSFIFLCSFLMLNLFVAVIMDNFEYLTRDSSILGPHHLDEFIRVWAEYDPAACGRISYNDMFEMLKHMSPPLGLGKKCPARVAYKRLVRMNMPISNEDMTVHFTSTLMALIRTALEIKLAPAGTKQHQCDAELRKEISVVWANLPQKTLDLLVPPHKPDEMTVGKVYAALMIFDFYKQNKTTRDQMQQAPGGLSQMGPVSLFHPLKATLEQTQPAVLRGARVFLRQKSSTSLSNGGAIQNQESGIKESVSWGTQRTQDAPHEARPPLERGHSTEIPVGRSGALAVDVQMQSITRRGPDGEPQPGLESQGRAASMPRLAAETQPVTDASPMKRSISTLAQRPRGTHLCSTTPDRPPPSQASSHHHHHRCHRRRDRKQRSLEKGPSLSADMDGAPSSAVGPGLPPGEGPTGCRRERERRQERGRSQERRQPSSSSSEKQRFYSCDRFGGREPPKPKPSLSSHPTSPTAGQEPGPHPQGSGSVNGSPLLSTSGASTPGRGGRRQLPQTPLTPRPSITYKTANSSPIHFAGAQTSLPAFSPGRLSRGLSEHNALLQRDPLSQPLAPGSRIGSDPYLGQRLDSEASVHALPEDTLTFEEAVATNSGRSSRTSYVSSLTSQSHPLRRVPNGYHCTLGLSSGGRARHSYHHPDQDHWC
T2 sequence (Q02410 whole entry): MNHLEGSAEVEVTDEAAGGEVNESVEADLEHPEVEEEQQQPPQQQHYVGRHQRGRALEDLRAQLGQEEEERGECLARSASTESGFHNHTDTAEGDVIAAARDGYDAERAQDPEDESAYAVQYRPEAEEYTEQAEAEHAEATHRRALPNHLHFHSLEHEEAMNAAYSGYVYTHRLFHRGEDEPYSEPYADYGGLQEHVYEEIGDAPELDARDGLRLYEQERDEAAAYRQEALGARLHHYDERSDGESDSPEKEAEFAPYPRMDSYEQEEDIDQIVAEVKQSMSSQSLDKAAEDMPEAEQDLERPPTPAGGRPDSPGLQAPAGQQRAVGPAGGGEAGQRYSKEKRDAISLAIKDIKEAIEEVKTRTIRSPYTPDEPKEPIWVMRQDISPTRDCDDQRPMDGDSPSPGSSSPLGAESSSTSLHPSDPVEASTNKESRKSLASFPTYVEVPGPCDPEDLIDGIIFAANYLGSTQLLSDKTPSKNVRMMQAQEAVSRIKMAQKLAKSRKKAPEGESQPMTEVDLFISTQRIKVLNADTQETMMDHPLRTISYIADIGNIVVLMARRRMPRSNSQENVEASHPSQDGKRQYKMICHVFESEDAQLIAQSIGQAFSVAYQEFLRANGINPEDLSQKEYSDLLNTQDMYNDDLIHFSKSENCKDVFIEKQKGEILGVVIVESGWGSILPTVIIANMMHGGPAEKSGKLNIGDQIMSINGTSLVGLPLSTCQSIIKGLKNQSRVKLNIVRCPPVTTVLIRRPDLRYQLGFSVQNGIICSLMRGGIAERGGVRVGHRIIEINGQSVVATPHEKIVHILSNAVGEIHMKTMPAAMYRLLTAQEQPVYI

[7] = biological target: T2, Voltage-gated N-type calcium channel alpha-1B subunit/Amyloid beta A4 precursor protein-binding family A member 1; assay type: protein assay
[8] = biological target: T3, Runt-related transcription factor 1/Core-binding factor subunit beta (Homo sapiens, UniProt Q01196+Q13951); test: inhibitors of RUNX1 Runt–CBFb-SMMHC binding, biochemical, TR-FRET (AID 1438); assay type: protein assay
T3 sequence (Q01196 whole entry): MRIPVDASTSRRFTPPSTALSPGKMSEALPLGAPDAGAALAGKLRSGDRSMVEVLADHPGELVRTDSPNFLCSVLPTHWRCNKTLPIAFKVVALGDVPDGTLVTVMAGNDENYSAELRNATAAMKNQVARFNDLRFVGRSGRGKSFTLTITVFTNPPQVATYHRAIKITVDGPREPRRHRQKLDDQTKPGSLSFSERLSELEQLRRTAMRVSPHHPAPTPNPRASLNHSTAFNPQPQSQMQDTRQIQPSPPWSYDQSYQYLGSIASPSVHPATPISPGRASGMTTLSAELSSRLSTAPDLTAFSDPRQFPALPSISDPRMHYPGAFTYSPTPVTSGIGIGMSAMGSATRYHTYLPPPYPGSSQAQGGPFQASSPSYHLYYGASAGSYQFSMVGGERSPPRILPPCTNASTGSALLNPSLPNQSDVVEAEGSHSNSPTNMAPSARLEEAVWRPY
T3 sequence (Q13951 whole entry): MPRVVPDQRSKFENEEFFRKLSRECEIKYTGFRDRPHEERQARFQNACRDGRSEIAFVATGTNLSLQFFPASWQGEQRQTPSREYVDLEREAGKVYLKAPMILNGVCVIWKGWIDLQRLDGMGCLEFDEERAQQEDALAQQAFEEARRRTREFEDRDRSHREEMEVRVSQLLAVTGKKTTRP

[9] = biological target: T2, Voltage-gated N-type calcium channel alpha-1B subunit/Amyloid beta A4 precursor protein-binding family A member 1; assay type: protein assay; remark: listed apart in the source
[10] = biological target: T2, Voltage-gated N-type calcium channel alpha-1B subunit/Amyloid beta A4 precursor protein-binding family A member 1; test: disruptors of Mint-PDZ/N-type channel peptide interaction – biochemical, HTRF, SAR follow-up (AID 2489); assay type: functional
[11] = biological target: T3, Runt-related transcription factor 1/Core-binding factor subunit beta; test: inhibitors of RUNX1 Runt–CBFb-SMMHC binding, primary screen, biochemical, FRET, Cerulean-Runt, Venus-CBFb-SMMHC, uHTS (AID 1434); assay type: protein assay;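 further: partner is the CBFb-SMMHC leukemia fusion protein rather than wild-type CBFb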
[12] = cytotoxicity toward NIH3T3 fibroblasts, dose response, counter-screen, cell-based, ATP luminescence, mouse fibroblasts (AID 2010); assay type: functional;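 further: cells exposed to compound for about 90 hours before reading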
[13] = biological target: Neurotensin receptor type 1 (Homo sapiens, UniProt P30989); assay type: functional;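 further: Image-based confirmatory dose-response assay measuring agonist activity at NTR1; NTR1-expressing U2OS osteosarcoma cells imaged for beta-arrestin GFP spot formation; agonist potency where compounds increase beta-arrestin recruitment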
[14] = inhibitors of intracellular T. cruzi replication, confirmation, NIH3T3 host cells, beta-gal luminescence (AID 2044); assay type: functional, cell-based;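 further: intracellular parasites grown in NIH/3T3 mouse fibroblasts as host cells; luminescent beta-galactosidase reporter signal from transgenic T. cruzi replicating inside host cells; inhibitors lower the luminescence signal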
[15] = biological target: Acyl-homoserine lactone acylase PvdQ (Pseudomonas aeruginosa (strain LESB58), UniProt Q9I194); test: P. aeruginosa PvdQ acylase inhibitors, dose response, biochemical, fluorescence, plate reader and imaging, cherry-picks (AID 493231)
[16] = biological target: Mothers against decapentaplegic homolog 3 (Homo sapiens, UniProt P84022); test: Smad3 binding inhibitors, lysate ELISA, dose response, cell lysate, secondary confirmation, chemiluminescent ELISA, HEK293 lysate (AID 1058); assay type: functional
[17] = biological target: C-C chemokine receptor type 6 (Homo sapiens, UniProt P51684); test: CCR6 receptor antagonists, dose response, cell-based, luminescent beta-arrestin readout (AID 504728); assay type: functional
Beta-galactosidase = Beta-galactosidase (Escherichia coli, UniProt Q8VNN2); test: beta-galactosidase enzyme inhibitors and activators, dose response, artefact control for CCR6 antagonist project, biochemical, E. coli enzyme, set 3 (AID 504712); assay type: functional
Beta-galactosidase, sequence (Q8VNN2 whole entry): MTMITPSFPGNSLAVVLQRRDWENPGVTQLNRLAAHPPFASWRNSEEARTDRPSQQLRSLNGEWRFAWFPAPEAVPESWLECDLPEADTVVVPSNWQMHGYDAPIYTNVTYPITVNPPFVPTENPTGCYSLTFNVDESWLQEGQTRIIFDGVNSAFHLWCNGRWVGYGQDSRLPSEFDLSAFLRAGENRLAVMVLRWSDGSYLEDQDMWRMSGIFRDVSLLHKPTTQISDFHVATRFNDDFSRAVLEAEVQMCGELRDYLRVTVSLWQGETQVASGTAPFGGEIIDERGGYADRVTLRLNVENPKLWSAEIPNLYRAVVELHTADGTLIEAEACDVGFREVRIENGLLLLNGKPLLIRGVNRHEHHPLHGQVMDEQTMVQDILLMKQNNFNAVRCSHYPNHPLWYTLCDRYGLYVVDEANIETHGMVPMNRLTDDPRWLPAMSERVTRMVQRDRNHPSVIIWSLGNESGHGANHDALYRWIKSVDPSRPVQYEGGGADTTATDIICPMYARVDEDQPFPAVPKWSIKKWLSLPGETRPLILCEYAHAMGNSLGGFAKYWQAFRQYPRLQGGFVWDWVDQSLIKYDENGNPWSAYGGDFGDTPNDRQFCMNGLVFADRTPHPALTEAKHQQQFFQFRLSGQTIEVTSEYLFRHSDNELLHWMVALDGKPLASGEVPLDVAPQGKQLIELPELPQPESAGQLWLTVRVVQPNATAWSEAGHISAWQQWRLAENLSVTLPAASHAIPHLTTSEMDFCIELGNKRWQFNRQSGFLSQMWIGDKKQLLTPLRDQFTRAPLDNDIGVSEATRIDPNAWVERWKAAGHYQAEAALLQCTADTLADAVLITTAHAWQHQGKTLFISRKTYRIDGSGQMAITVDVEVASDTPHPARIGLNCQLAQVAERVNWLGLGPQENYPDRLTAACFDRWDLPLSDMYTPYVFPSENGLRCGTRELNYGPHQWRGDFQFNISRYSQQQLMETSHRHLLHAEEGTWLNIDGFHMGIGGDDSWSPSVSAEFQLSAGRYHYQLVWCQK

[18] = biological target: T4, Short transient receptor potential channel 4 (Mus musculus, UniProt Q9QUQ5); test: mouse TRPC4 channel activators, dose response, cell-based, HEK293 TRPC4/mu-opioid, Fluo-4 calcium (AID 434937); assay type: functional
T4 sequence (Q9QUQ5 whole entry): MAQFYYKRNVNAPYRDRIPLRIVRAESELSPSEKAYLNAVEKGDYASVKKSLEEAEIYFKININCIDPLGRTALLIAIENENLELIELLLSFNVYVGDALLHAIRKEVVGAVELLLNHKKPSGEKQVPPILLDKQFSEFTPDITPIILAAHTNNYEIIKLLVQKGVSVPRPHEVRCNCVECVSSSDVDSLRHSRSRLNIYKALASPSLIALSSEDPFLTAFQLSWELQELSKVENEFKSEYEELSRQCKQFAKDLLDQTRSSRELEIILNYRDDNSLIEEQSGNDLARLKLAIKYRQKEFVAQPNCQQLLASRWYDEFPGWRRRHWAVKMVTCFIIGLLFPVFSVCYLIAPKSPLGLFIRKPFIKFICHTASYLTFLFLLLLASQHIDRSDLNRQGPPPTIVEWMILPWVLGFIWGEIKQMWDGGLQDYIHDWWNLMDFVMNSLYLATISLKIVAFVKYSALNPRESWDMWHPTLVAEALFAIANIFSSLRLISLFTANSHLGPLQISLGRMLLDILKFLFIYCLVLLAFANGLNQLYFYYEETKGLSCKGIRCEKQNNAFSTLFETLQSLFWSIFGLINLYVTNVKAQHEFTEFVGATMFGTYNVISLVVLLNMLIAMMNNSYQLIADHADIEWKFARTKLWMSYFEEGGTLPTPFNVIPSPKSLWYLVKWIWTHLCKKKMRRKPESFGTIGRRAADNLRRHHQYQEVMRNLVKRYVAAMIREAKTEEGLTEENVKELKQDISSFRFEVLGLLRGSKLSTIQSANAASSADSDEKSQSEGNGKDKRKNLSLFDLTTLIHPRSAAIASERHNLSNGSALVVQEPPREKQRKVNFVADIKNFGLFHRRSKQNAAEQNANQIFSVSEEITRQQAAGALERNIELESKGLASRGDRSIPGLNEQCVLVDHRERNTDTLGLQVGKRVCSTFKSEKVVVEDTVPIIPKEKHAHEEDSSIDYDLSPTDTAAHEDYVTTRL

[19] = biological target: Melanin-concentrating hormone receptor 1 (Homo sapiens, UniProt Q99705); test: Late-stage fluorescence-based counterscreen for antagonists of the G-protein coupled receptor 7 (GPR7): cell-based dose response assay to identify antagonists of the melanin-concentrating hormone receptor 1 (MCHR1). [Related pubchem assays (depositor defined):AID1861, AID1880, AID1952, AID2148, AID2251, AID2257, AID485339]; assay type: functional;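 further: stimulated with 30 nM MCH peptide agonist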

SMILES: CN(CCC#N)C(=O)COC(=O)c1c2c(nc3ccccc13)/C(=C/c1ccco1)CC2
IC50 [1]: 7.86 µM (active)
IC50 [2]: 16.9 µM (active)
IC50 [3]: 4.76 µM (active)
IC50 [4]: > 100 µM (inactive)
IC50 [5]: 1.44 µM (active)
IC50 (Prothrombin): 6.71 µM (active)
IC50 [6]: 2.82 µM (active)
IC50 [7]: 3.22 µM (active)
IC50 [8]: > 100 µM (inactive)
IC50 [9]: 6.34 µM (active)
IC50 [10]: 6.19 µM (active)
IC50 [11]: 62.4 µM (inactive)

SMILES: O=C(Nc1ccc([N+](=O)[O-])cc1)Nc1ccc(N2CCOCC2)c2nonc12
EC50 [12]: > 30 µM (not active)
EC50 [13]: > 40 µM (inactive)
EC50 [14]: 3.77 µM (active)

SMILES: N#CC(OC(=O)c1ccccc1)c1cccc([N+](=O)[O-])c1 (stereo unspecified)
AC50 [15]: 7.45 µM (active)

IC50 [16]: > 40 µM (not active)
SMILES: COc1cccc(C(c2cc3c(cc2O)OCO3)N2CCN(C(c3cc4c(cc3O)OCO4)c3cccc(OC)c3O)CC2)c1O (stereo unspecified)

IC50 [17]: > 66.6 µM (inactive)
IC50 (Beta-galactosidase): > 66.6 µM (inactive)
EC50 [18]: 2.11 µM (active)
SMILES: CN(C)C(CNc1ccc(C(F)(F)F)cn1)c1ccccc1 (stereo unspecified)

IC50 [19]: 2.6 µM (active)
SMILES: COc1ccc(Oc2c(Cl)cnn(-c3cccc(C(F)(F)F)c3)c2=O)cc1
